Results published in patent US5179206A, “Substituted 3-aminosydnone imines” (Cassella Aktiengellschaft, priority 1989, dated 1993).
Structures can show the parent of a compound that is named as a salt. Where two headings read alike, the source gives them in different places.

Test system: pulmonary artery of the guinea pig (spiral strips)
Test: Relaxant effect on potassium-depolarized, CaCl2-contracted spiral strips of the pulmonary artery of the guinea pig (modified method of Godfraind and Kaba and of Schuman et al)
Conditions: depolarized using 40 mmol/l of potassium, contraction induced by 0.5 mmol/l of CaCl2, average value of 4 to 6 vessel strips, read-out: IC50: concentration of the test substance which inhibits the contraction by 50%
Procedure: The pharmacological action of the compounds of the formula I was determined by a modified method of Godfraind and Kaba (Arch.Int. Pharmacodyn. Ther. 196, (Suppl.) 35 to 49, 1972) and of Schuman et al (Naunyn-Schmiedeberg's Arch. Pharmacol. 289, 409 to 418, 1975). In this connection, spiral strips of the pulmonary artery of the guinea pig are depolarized using 40 mmol/l of potassium after equilibration in calcium-free Tyrode solution. An addition of 0.5 mmol/l of CaCl2 then induces a contraction. The relaxant effect of the test substance is determined by cumulative addition in semilogarithmic graduated concentrations. The concentration of the test substance which inhibits the contraction by 50% (=IC50, mol/l) is determined from the concentration-effect curve (abscissa: -log mol/l of test substance, ordinate: % inhibition of the maximum contraction, average value of 4 to 6 vessel strips).

IC50 (Cavia porcellus)	IC50	Compound
2400 nM		CCCCCCc1c(=N)o[n-][n+]1N1C(C)CCCC1C (stereo not shown) [Example 3, 3-(2,6-Dimethylpiperidino)-4-hexylsydnone imine hydrochloride]
2000 nM		CC1CCCC(C)N1[n+]1[n-]oc(=N)c1CCc1ccccc1 (stereo not shown) [Example 8, 3-(2,6-Dimethylpiperidino)-4-(2-phenylethyl)sydnone imine hydrochloride]
	> 300000 nM	CCOC(=O)[N-]c1cn(N2CCOCC2)n[o+]1 [Molsidomine, N-ethoxycarbonyl-3-morpholino-sydnone imine, reference compound]
2300 nM		CC1CCCC(C)N1[n+]1[n-]oc(=N)c1Cc1ccccc1 (stereo not shown) [Example 6, 4-Benzyl-3-(2,6-dimethylpiperidino)sydnone imine hydrochloride]
